Experimental data as given in publication PMC11356571, “The Comparative Metabolism of a Novel Hepatocellular Carcinoma Therapeutic Agent, 2,3-Diamino-N-(4-(benzo[d]thiazol-2-yl)phenyl)propanamide, in Human and Animal Hepatocytes” (Metabolites, 2024).

Key:
Type in all cases: in vitro ADME
[1] = test system: NAT1 in human liver cytosol; experiment: Human liver cytosol incubation with NAT1 inhibitor caffeic acid; conditions: 30 min at 37 °C, M1 1 μM
Method: (§1) For the chemical inhibition assay, human liver cytosol was prepared in 0.05 M potassium phosphate buffer at a concentration of 1 mg/mL prior to use. A 1 μL of M1 (final concentration: 1 μM) solution was spiked in 223 μL of human liver cytosol preparations. One microliter each of caffeic acid and 1-aminobenzotriazole were added and incubated as NAT1 and NAT2 inhibitors, respectively. The final concentrations of the NAT inhibitors were 0, 100, and 1000 μM in each incubate. After 5 min of pre-warming of the incubates at 37 °C, the metabolic reaction was initiated by adding 25 μL of acetyl-CoA regenerating system to the incubates. The samples were incubated in triplicate for 0 min or 30 min at 37 °C. The reaction was stopped by adding 250 μL of ice-cold acetonitrile containing the IS (camptothecin, 500 ng/mL) and vortex-mixing. Following centrifugation at 13,000 rpm for 5 min at 4 °C, a 2 μL aliquot of the supernatant was injected into the LC-MS/MS system. The percentage of remaining M1 and the formation of M2 were evaluated to determine the involvement of the NAT isozyme in N-acetylation of M1.
(§2) For enzyme characterization, an Agilent 6460 triple quadrupole mass spectrometer coupled with a 1260 HPLC system (Agilent Technologies, Santa Clara, CA, USA) and a Kinetex Halo® C18 column (2.7 μm, 2.1 × 50 mm, Advanced Material Technology, Wilmington, DE, USA) were used for chromatographic separation. The mobile phases comprised 0.1% (v/v) formic acid in water (mobile phase A) and 0.1% formic acid (v/v) in acetonitrile (mobile phase B). The mobile phase flowed at a rate of 0.3 mL/min, and the gradient elution program proceeded as follows: starting with 10% B for 0.5 min, a linear increase to 90% B for 0.2 min, maintaining 90% B for 1.5 min, and then returning to initial conditions for 0.2 min. Subsequently, the column was reconditioned using 10% B for 2.6 min. The column and auto-sampler were maintained at 40 °C and 4 °C, respectively. ETN101, M1, and M2 were detected via MRM using ESI in the positive mode. […]

[2] = test system: NAT2 in human liver cytosol; experiment: Human liver cytosol incubation with NAT2 inhibitor 1-aminobenzotriazole; conditions: 30 min at 37 °C, M1 1 μM
Method: as §1, §2

human NAT1 = target: T1, human NAT1 (Homo sapiens, UniProt P18440); experiment: Incubation with cDNA-expressed human NAT1; conditions: cDNA-expressed human NAT1, 60 min at 37 °C, concentration of 0.1 μM
T1 construct: purchased Corning Life Sciences (Woburn, MA, USA)
T1 sequence (P18440 1-290): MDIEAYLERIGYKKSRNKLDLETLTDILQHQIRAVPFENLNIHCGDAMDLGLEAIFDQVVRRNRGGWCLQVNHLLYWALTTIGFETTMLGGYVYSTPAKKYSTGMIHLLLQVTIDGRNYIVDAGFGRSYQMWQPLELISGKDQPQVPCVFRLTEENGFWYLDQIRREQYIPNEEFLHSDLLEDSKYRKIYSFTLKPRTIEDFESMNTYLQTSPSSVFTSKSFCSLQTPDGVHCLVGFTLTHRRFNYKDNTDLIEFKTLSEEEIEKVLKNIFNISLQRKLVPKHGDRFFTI
Method: Additionally, M1 was incubated with cDNA-expressed human NAT1 isozyme to confirm the involvement of the NAT1 isozyme in the N-acetylation of M1. This was carried out by monitoring the remaining percentage of M1 and the formation of M2 in a concentration-dependent manner. A 225 μL reaction mixture containing cDNA-expressed human NAT1 at 1 μg/mL, and 1 μM M1 (final concentration: 0.1 and 1 μM) in 0.05 M potassium phosphate buffer was pre-warmed for 5 min. The reaction was initiated by adding 25 μL of acetyl-CoA regenerating system to the incubates. The acetyl-CoA regenerating system consisted of 0.1 mM acetyl-CoA, 4.5 mM acetyl-DL-carnitine, and 2.0 unit/mL carnitine acetyltransferase as final concentrations. The samples were incubated in triplicate for 0 min or 60 min at 37 °C. The reactions were stopped by adding 250 μL of ice-cold acetonitrile containing the IS (camptothecin, 500 ng/mL). Samples were centrifuged at 13,000 rpm for 5 min at 4 °C. An aliquot of 2 μL supernatant was injected in LC-MS/MS system.
For enzyme characterization, an Agilent 6460 triple quadrupole mass spectrometer coupled with a 1260 HPLC system (Agilent Technologies, Santa Clara, CA, USA) and a Kinetex Halo® C18 column (2.7 μm, 2.1 × 50 mm, Advanced Material Technology, Wilmington, DE, USA) were used for chromatographic separation. […] ETN101, M1, and M2 were detected via MRM using ESI in the positive mode. […]

Nc1ccc(-c2nc3ccccc3s2)cc1 [M1, 2-(4-aminophenyl)benzothiazole]
Percentage remaining of M1 ([1]; caffeic acid 0 μM): 87.2% | Percentage remaining of M1 ([1]; caffeic acid 100 μM): 89.6% | Percentage remaining of M1 ([1]; caffeic acid 1000 μM): 94.4% | Percentage remaining of M1 ([2]; 1-aminobenzotriazole 0 μM): 86.7% | Percentage remaining of M1 ([2]; 1-aminobenzotriazole 100 μM): 89.4% | Percentage remaining of M1 ([2]; 1-aminobenzotriazole 1000 μM): 90.9% | Percentage remaining of M1 (human NAT1): 90.3%
